Tested on: post-menopausal women
Assay: Weekly severity of moderate to severe VMS, dose-finding study
Format: in vivo
Excerpt: To determine the Minimum Effective Dose (MED), firstly the selection criteria required that patients presented at least 7 moderate to severe VMS/day or at least 50 moderate to severe VMS/week in the week preceding randomization. Secondly, a placebo group was included in a double-blind fashion. Thirdly, the total patient number was such that statistical significance could be obtained between separate arms of the study. Fourthly, the absolute change from baseline in weekly frequency of moderate to severe VMS was taken into account. An analysis of covariance (ANCOVA) was performed based on the untransformed change in weekly frequency of moderate to severe VMS from baseline. Finally, the change in severity from baseline was evaluated. For this, the Severity Scoring System of VMS was documented by the subjects as follows: • a score of Mild (1) for a sensation of heat without sweating; • a score of Moderate (2) for a sensation of heat with sweating/the subject is able to continue activity; and • a score of Severe (3) for a sensation of heat with sweating/which causes cessation of activity.
In addition, a severity score of zero was attributed to the patients who have experienced a 100% VMS relief during a given week.
From these score records, the severity at baseline was calculated by taking into account only moderate and severe VMS, such that the total number of moderate VMS during the 7 days of the baseline week was multiplied by 2 and added to the total number of severe VMS during the 7 days of the baseline week multiplied by 3. This total was then divided by the total number of moderate and severe VMS during the baseline week.
The severity at weeks 4 and 12 was calculated using the following formula for each of these weeks: • the number of mild VMS during 7 days multiplied by 1; • the number of moderate VMS during 7 days multiplied by 2; • the number of severe VMS during 7 days multiplied by 3. and adding the 3 resulting numbers together before dividing this total by the total number of mild, moderate and severe VMS during the 7 days of the week.
This method was used to generate the data included in Example 1 further below, under section A. b) “VMS Severity”.
In order to better analyse the data recorded in this study, treatment groups have been compared using an ANCOVA (analysis of covariance) with respect to the change in severity of moderate to severe VMS from baseline to mild, moderate and severe VMS at week 4 and week 12 for each active treatment versus placebo. For women who experienced 100% VMS relief at week 4 and/or week 12, a value of zero was attributed. The ANCOVA model includes treatment (“trt1”) as a fixed effect and baseline (“base”) as a covariate. • b) Covariate significance

SMILES: C[C@]12CC[C@@H]3c4ccc(O)cc4CC[C@H]3[C@@H]1[C@@H](O)[C@@H](O)[C@@H]2O [E4, 1,3,5 (10)-estratrien-3,15alpha,16alpha,17beta-tetrol]
- LS adjusted mean change from baseline in weekly severity of moderate to severe VMS (2.5 mg E4, week 4): −0.3411
- LS adjusted mean relative change from baseline in weekly severity of moderate to severe VMS (2.5 mg E4, week 4): −0.1453
- LS adjusted mean change from baseline in weekly severity of moderate to severe VMS (2.5 mg E4, week 12): −0.6296
- LS adjusted mean relative change from baseline in weekly severity of moderate to severe VMS (2.5 mg E4, week 12): −0.275
- Mean change from baseline in weekly severity of moderate to severe VMS (2.5 mg E4 QD per os, week 1): −0.1542
- Relative change (% from baseline) in weekly severity of moderate to severe VMS, mean (2.5 mg E4 QD per os, week 1): −7%
- Mean change from baseline in weekly severity of moderate to severe VMS (2.5 mg E4 QD per os, week 2): −0.2112
- Relative change (% from baseline) in weekly severity of moderate to severe VMS, mean (2.5 mg E4 QD per os, week 2): −9%
- Mean change from baseline in weekly severity of moderate to severe VMS (2.5 mg E4 QD per os, week 3): −0.3246
- Relative change (% from baseline) in weekly severity of moderate to severe VMS, mean (2.5 mg E4 QD per os, week 3): −14%
- Mean change from baseline in weekly severity of moderate to severe VMS (2.5 mg E4 QD per os, week 4): −0.3373
- Relative change (% from baseline) in weekly severity of moderate to severe VMS, mean (2.5 mg E4 QD per os, week 4): −15%
- Mean change from baseline in weekly severity of moderate to severe VMS (2.5 mg E4 QD per os, week 5): −0.3984
- Relative change (% from baseline) in weekly severity of moderate to severe VMS, mean (2.5 mg E4 QD per os, week 5): −17%
- Mean change from baseline in weekly severity of moderate to severe VMS (2.5 mg E4 QD per os, week 6): −0.5014
- Relative change (% from baseline) in weekly severity of moderate to severe VMS, mean (2.5 mg E4 QD per os, week 6): −22%
- Mean change from baseline in weekly severity of moderate to severe VMS (2.5 mg E4 QD per os, week 7): −0.4562
- Relative change (% from baseline) in weekly severity of moderate to severe VMS, mean (2.5 mg E4 QD per os, week 7): −20%
- Mean change from baseline in weekly severity of moderate to severe VMS (2.5 mg E4 QD per os, week 8): −0.5359
- Relative change (% from baseline) in weekly severity of moderate to severe VMS, mean (2.5 mg E4 QD per os, week 8): −24%
- Mean change from baseline in weekly severity of moderate to severe VMS (2.5 mg E4 QD per os, week 9): −0.5465
- Relative change (% from baseline) in weekly severity of moderate to severe VMS, mean (2.5 mg E4 QD per os, week 9): −24%
- Mean change from baseline in weekly severity of moderate to severe VMS (2.5 mg E4 QD per os, week 10): −0.6052
- Relative change (% from baseline) in weekly severity of moderate to severe VMS, mean (2.5 mg E4 QD per os, week 10): −26%
- Mean change from baseline in weekly severity of moderate to severe VMS (2.5 mg E4 QD per os, week 11): −0.5564
- Relative change (% from baseline) in weekly severity of moderate to severe VMS, mean (2.5 mg E4 QD per os, week 11): −25%
- Mean change from baseline in weekly severity of moderate to severe VMS (2.5 mg E4 QD per os, week 12): −0.6279
- Relative change (% from baseline) in weekly severity of moderate to severe VMS, mean (2.5 mg E4 QD per os, week 12): −28%
- Difference with placebo, LS adjusted mean, absolute change in weekly severity of moderate to severe VMS (2.5 mg E4 vs placebo, week 4): −0.01329
- Difference with placebo, LS adjusted mean, relative change in weekly severity of moderate to severe VMS (2.5 mg E4 vs placebo, week 4): −0.004358
- Difference with placebo, LS adjusted mean, absolute change in weekly severity of moderate to severe VMS (2.5 mg E4 vs placebo, week 12): 0.02869
- Difference with placebo, LS adjusted mean, relative change in weekly severity of moderate to severe VMS (2.5 mg E4 vs placebo, week 12): 0.004705
- LS adjusted mean change from baseline in weekly severity of moderate to severe VMS (5 mg E4, week 4): −0.2386
- LS adjusted mean relative change from baseline in weekly severity of moderate to severe VMS (5 mg E4, week 4): −0.09556
- LS adjusted mean change from baseline in weekly severity of moderate to severe VMS (5 mg E4, week 12): −0.4026
- LS adjusted mean relative change from baseline in weekly severity of moderate to severe VMS (5 mg E4, week 12): −0.1649
- Mean change from baseline in weekly severity of moderate to severe VMS (5 mg E4 QD per os, week 1): −0.098
- Relative change (% from baseline) in weekly severity of moderate to severe VMS, mean (5 mg E4 QD per os, week 1): −4%
- Mean change from baseline in weekly severity of moderate to severe VMS (5 mg E4 QD per os, week 2): −0.1199
- Relative change (% from baseline) in weekly severity of moderate to severe VMS, mean (5 mg E4 QD per os, week 2): −5%
- Mean change from baseline in weekly severity of moderate to severe VMS (5 mg E4 QD per os, week 3): −0.1574
- Relative change (% from baseline) in weekly severity of moderate to severe VMS, mean (5 mg E4 QD per os, week 3): −7%
- Mean change from baseline in weekly severity of moderate to severe VMS (5 mg E4 QD per os, week 4): −0.2341
- Relative change (% from baseline) in weekly severity of moderate to severe VMS, mean (5 mg E4 QD per os, week 4): −10%
- Mean change from baseline in weekly severity of moderate to severe VMS (5 mg E4 QD per os, week 5): −0.1683
- Relative change (% from baseline) in weekly severity of moderate to severe VMS, mean (5 mg E4 QD per os, week 5): −7%
- Mean change from baseline in weekly severity of moderate to severe VMS (5 mg E4 QD per os, week 6): −0.3212
- Relative change (% from baseline) in weekly severity of moderate to severe VMS, mean (5 mg E4 QD per os, week 6): −14%
- Mean change from baseline in weekly severity of moderate to severe VMS (5 mg E4 QD per os, week 7): −0.2787
- Relative change (% from baseline) in weekly severity of moderate to severe VMS, mean (5 mg E4 QD per os, week 7): −12%
- Mean change from baseline in weekly severity of moderate to severe VMS (5 mg E4 QD per os, week 8): −0.3239
- Relative change (% from baseline) in weekly severity of moderate to severe VMS, mean (5 mg E4 QD per os, week 8): −14%
- Mean change from baseline in weekly severity of moderate to severe VMS (5 mg E4 QD per os, week 9): −0.3249
- Relative change (% from baseline) in weekly severity of moderate to severe VMS, mean (5 mg E4 QD per os, week 9): −14%
- Mean change from baseline in weekly severity of moderate to severe VMS (5 mg E4 QD per os, week 10): −0.3667
- Relative change (% from baseline) in weekly severity of moderate to severe VMS, mean (5 mg E4 QD per os, week 10): −15%
- Mean change from baseline in weekly severity of moderate to severe VMS (5 mg E4 QD per os, week 11): −0.4161
- Relative change (% from baseline) in weekly severity of moderate to severe VMS, mean (5 mg E4 QD per os, week 11): −18%
- Mean change from baseline in weekly severity of moderate to severe VMS (5 mg E4 QD per os, week 12): −0.4007
- Relative change (% from baseline) in weekly severity of moderate to severe VMS, mean (5 mg E4 QD per os, week 12): −17%
- Difference with placebo, LS adjusted mean, absolute change in weekly severity of moderate to severe VMS (5 mg E4 vs placebo, week 4): 0.08925
- Difference with placebo, LS adjusted mean, relative change in weekly severity of moderate to severe VMS (5 mg E4 vs placebo, week 4): 0.04543
- Difference with placebo, LS adjusted mean, absolute change in weekly severity of moderate to severe VMS (5 mg E4 vs placebo, week 12): 0.2557

From patent publication US11484539B2, “Compounds and their uses for alleviating menopause-associated symptoms” (Estetra SPRL, priority 2018, dated 2022)
